Results as given in publication PMC7727793, “Aggregation Behavior, Antibacterial Activity and Biocompatibility of Catanionic Assemblies Based on Amino Acid-Derived Surfactants” (International Journal of Molecular Sciences, 2020).

Experiments:
[1] = system: A431 cell line; test: MTT cell viability assay; type: cell-based
Protocol: (§1) The murine Swiss albino fibroblast (3T3), the squamous carcinoma (A431), the immortal human keratinocyte (HaCaT) and the human epithelial carcinoma (HeLa) cell lines were obtained from Celltec UB. Cells were grown in Dulbecco’s Modified Eagle’s Medium (DMEM) (4.5 g/L glucose) supplemented with 10% (v/v) fetal bovine serum (FBS), 1% (v/v) L-glutamine solution (200 mM) and 1% (v/v) penicillin-streptomycin solution (10,000 U/mL penicillin and 10 mg/mL streptomycin) at 37 °C and 5% CO2 (CO2 Incubator Nuaire, Plymouth, MN, USA). All the biological materials were purchased from Lonza (Verviers, Belgium). Cells were cultured in 75 cm^2 culture flasks (TPP, Trasadingen, Switzerland) and were routinely split using trypsin-EDTA (ethylenediaminetetraacetate) solution (170,000 U/L trypsin and 0.2 g/L EDTA) (Lonza, Verviers, Belgium) when cells are approximately 80% confluent. […]
(§2) In this assay, living cells reduce the yellow tetrazolium salt, 2,5-Diphenyl-3, -(4,5-dimethyl-2-thiazolyl) tetrazolium bromide (MTT), to insoluble purple formazan crystals. […] Then, the absorbance of the resulting solutions was measured at 550 nm using a Bio-Rad 550 microplate reader (Hercules, California, USA). The effect of each treatment was calculated as the percentage of tetrazolium salt reduction by viable cells against the untreated cell control (cells with medium only).

[2] = Surface tension, hanging drop tensiometer; type: physicochemical; details: 25 °C; for Surface tension (γ) at CMC: estimated error 1 mNm^−1; for CMC obtained by surface tension (CMCγ): estimated error 10%; for Area per molecule (Am): Gibbs adsorption isotherm using n = 1, estimated error 15%
Protocol: Surface tension was measured at 25 °C using a homemade hanging drop tensiometer. Samples were hanged from a straight-cut Teflon tube and the size and shape were obtained from pictures as a function of time. Surface tension was obtained from fitting the drop profile to the appropriate Young-Laplace equations. See Sorrenti et al. for more details. From a concentrated clear solution, successive dilutions were made to cover the adequate range of surface tension changes. The surface tension of […]14 was measured in three pH conditions: (a) unbuffered, using water as solvent, (b) buffered at pH = 2, using 10 mM HCl solution to prepare the concentrated sample and their dilutions and (c) buffered at pH = 12, using 10 mM […] to prepare the concentrated solution and their dilutions.

[3] = system: 3T3 cell line; test: NRU cell viability assay; type: cell-based, murine; details: 3T3, NRU, 24 h
Protocol: (§3) The murine Swiss albino fibroblast (3T3), the squamous carcinoma (A431), the immortal human keratinocyte (HaCaT) and the human epithelial carcinoma (HeLa) cell lines were obtained from Celltec UB. Cells were grown in Dulbecco’s Modified Eagle’s Medium (DMEM) (4.5 g/L glucose) supplemented with 10% (v/v) fetal bovine serum (FBS), 1% (v/v) L-glutamine solution (200 mM) and 1% (v/v) penicillin-streptomycin solution (10,000 U/mL penicillin and 10 mg/mL streptomycin) at 37 °C and 5% CO2 (CO2 Incubator Nuaire, Plymouth, MN, USA). All the biological materials were purchased from Lonza (Verviers, Belgium). Cells were cultured in 75 cm^2 culture flasks (TPP, Trasadingen, Switzerland) and were routinely split using trypsin-EDTA (ethylenediaminetetraacetate) solution (170,000 U/L trypsin and 0.2 g/L EDTA) (Lonza, Verviers, Belgium) when cells are approximately 80% confluent. 3T3 and HaCaT cells (1 × 10^5 cells/ mL) and HeLa and A431 cells (5 × 10^4 cells/mL) were grown at the defined densities into the central 60 wells of a 96-well plate. Cells were incubated for 24 h under 5% CO2 at 37 °C. […] Agitation, determination of the absorbance of the extracted solution and effect of each treatment in comparison with control cells were analogous of those described in the case of the MTT method.

[4] = system: HaCaT cell line; test: NRU cell viability assay; type: cell-based, human; details: 24 h
Protocol: as §3

[5] = system: 3T3 cell line; test: MTT cell viability assay; type: cell-based, murine; details: 3T3, MTT, 24 h
Protocol: as §1, §2

[6] = Pyrene fluorescence (II/IIII ratio) CMC determination; type: physicochemical; details: pyrene probe, 25 °C; estimated error 10%
Protocol: Fluorescence measurements were carried out using a Shimadzu RF 540 spectrofluorometer (Shimadzu, Kyoto, Japan). Pyrene (Sigma-Aldrich, San Luis, MO, USA) was utilized as a fluorescence probe at 25 °C. From a 5 mM solution of catanionic formulations prepared in a pyrene aqueous solution (10^−6 M), different dilutions were prepared. The fluorescence emission spectra of these binary mixtures were acquired from 340 to 450 nm after excitation at 332 nm. The ratio of the first to the third vibronic peaks (II/IIII) in the emission spectra of pyrene is sensitive to the polarity of the microenvironment and the CMC can be calculated from plots of II/IIII as a function of surfactant concentration.

[7] = system: HeLa cell line; test: MTT cell viability assay; type: cell-based, human; details: 24 h
Protocol: (§4) The murine Swiss albino fibroblast (3T3), the squamous carcinoma (A431), the immortal human keratinocyte (HaCaT) and the human epithelial carcinoma (HeLa) cell lines were obtained from Celltec UB. Cells were grown in Dulbecco’s Modified Eagle’s Medium (DMEM) (4.5 g/L glucose) supplemented with 10% (v/v) fetal bovine serum (FBS), 1% (v/v) L-glutamine solution (200 mM) and 1% (v/v) penicillin-streptomycin solution (10,000 U/mL penicillin and 10 mg/mL streptomycin) at 37 °C and 5% CO2 (CO2 Incubator Nuaire, Plymouth, MN, USA). All the biological materials were purchased from Lonza (Verviers, Belgium). Cells were cultured in 75 cm^2 culture flasks (TPP, Trasadingen, Switzerland) and were routinely split using trypsin-EDTA (ethylenediaminetetraacetate) solution (170,000 U/L trypsin and 0.2 g/L EDTA) (Lonza, Verviers, Belgium) when cells are approximately 80% confluent.
(§5) 3T3 and HaCaT cells (1 × 10^5 cells/ mL) and HeLa and A431 cells (5 × 10^4 cells/mL) were grown at the defined densities into the central 60 wells of a 96-well plate. Cells were incubated for 24 h under 5% CO2 at 37 °C. Then, the spent medium was removed, and cells were incubated during 24 h with the corresponding surfactant systems, previously diluted 50% (v/v) in DMEM medium supplemented with 5% FBS (100 µL).
(§6) In this assay, living cells reduce the yellow tetrazolium salt, 2,5-Diphenyl-3, -(4,5-dimethyl-2-thiazolyl) tetrazolium bromide (MTT), to insoluble purple formazan crystals. After the cells were incubated for 24 h with the corresponding systems, the medium was removed and 100 µL (5 mg/mL) of 2,5-Diphenyl-3,-(4,5-dimethyl-2-thiazolyl) tetrazolium bromide (MTT) (Sigma–Aldrich, St. Louis, MO, USA) in phosphate-buffered saline (PBS) (Lonza, Verviers, Belgium), diluted 1:10 in culture medium without phenol red and absence of FBS (Lonza, Verviers, Belgium), was added to the cells. The plates were incubated for 3 h, after which the medium was removed. Thereafter, 100 µL of dimethylsulfoxide (DMSO) (Sigma–Aldrich, St. Louis, MO, USA) was added to each well to dissolve the purple formazan crystals. Plates were then placed in a microtiter-plate shaker for 5 min at room temperature to help the total dissolution. Then, the absorbance of the resulting solutions was measured at 550 nm using a Bio-Rad 550 microplate reader (Hercules, California, USA). The effect of each treatment was calculated as the percentage of tetrazolium salt reduction by viable cells against the untreated cell control (cells with medium only).

[8] = system: HaCaT cell line; test: MTT cell viability assay; type: cell-based, human; details: 24 h
Protocol: as §4, §5, §6

| Compound | IC50 ([1]; Homo sapiens, A-431, 24 h) | Surface tension (γ) at CMC [2] | CMC obtained by surface tension (CMCγ) [2] | Area per molecule (Am) [2] | IC50 ([3]; Mus musculus, NIH3T3) | IC50 ([4]; Homo sapiens) | IC50 ([5]; Mus musculus, NIH3T3) | CMC obtained by Fluorescence (CMCF) [6] | IC50 ([7]; Homo sapiens) | IC50 ([8]; Homo sapiens) | IC50 ([1]; 24 h) | IC50 [3] | IC50 [4] | IC50 [5] | IC50 [7] | IC50 [8] |
| --- | --- | --- | --- | --- | --- | --- | --- | --- | --- | --- | --- | --- | --- | --- | --- | --- |
| CCCCCCCCCCCCCC(=O)O [Sodium myristate, sodium myristate] | > 50 µM | 24 mNm^−1 | 5.0 ^7 mM | 1.0 nm^2 | > 50 µM | > 50 µM | > 50 µM | 0.90 mM | > 50 µM | > 50 µM | – | – | – | – | – | – |
| N(π),N(τ)-bis(methyl)-L-Histidine tetradecyl amide [DMHNHC14] | – | 33 mNm^−1 | 5.2 mM | 0.57 nm^2 | – | – | – | 3.8 mM | – | – | 22.6 µM | 26.1 µM | 45.7 µM | 17.1 µM | 3.37 µM | 25.5 µM |
